Reference: PubChem BioAssay (NCI)
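Cultured in 96-well plates, cells were exposed to test compound for 48 hours across five concentrations. Definition used: TGI = concentration required for complete inhibition of growth.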

What was measured:
Experiment in all cases: growth of human tumour cells (NCI), 48 h
UO-31 renal = system: UO-31 renal
NCI/ADR-RES ovarian = system: NCI/ADR-RES ovarian
UACC-62 melanoma = system: UACC-62 melanoma
UACC-257 melanoma = system: UACC-257 melanoma
KM12 colon = system: KM12 colon
NCI-H522 lung = system: NCI-H522 lung
PC-3 prostate = system: PC-3 prostate
SF-295 CNS = system: SF-295 CNS
K-562 leukemia = system: K-562 leukemia
NCI-H460 lung = system: NCI-H460 lung
HL-60(TB) leukemia = system: HL-60(TB) leukemia
786-0 renal = system: 786-0 renal
HCT-116 colon = system: HCT-116 colon
RXF 393 renal = system: RXF 393 renal
HS 578T breast = system: HS 578T breast
RPMI-8226 leukemia = system: RPMI-8226 leukemia
A498 renal = system: A498 renal
SNB-75 CNS = system: SNB-75 CNS
SW-620 colon = system: SW-620 colon
HOP-62 NSCLC = system: HOP-62 NSCLC
M14 melanoma = system: M14 melanoma
OVCAR-5 ovarian = system: OVCAR-5 ovarian
T-47D breast = system: T-47D breast
SR leukemia = system: SR leukemia
TK-10 renal = system: TK-10 renal
NCI-H226 lung = system: NCI-H226 lung
IGROV1 ovarian = system: IGROV1 ovarian
U251 CNS = system: U251 CNS
MDA-MB-231 breast = system: MDA-MB-231 breast
SK-MEL-2 melanoma = system: SK-MEL-2 melanoma
MDA-MB-435 = system: MDA-MB-435
OVCAR-8 ovarian = system: OVCAR-8 ovarian
HCC-2998 colon = system: HCC-2998 colon
SNB-19 CNS = system: SNB-19 CNS
SN12C renal = system: SN12C renal
OVCAR-4 ovarian = system: OVCAR-4 ovarian
DU-145 prostate = system: DU-145 prostate
SK-MEL-28 melanoma = system: SK-MEL-28 melanoma
HT29 colon = system: HT29 colon
SK-MEL-5 melanoma = system: SK-MEL-5 melanoma
CAKI-1 renal = system: CAKI-1 renal
CCRF-CEM leukemia = system: CCRF-CEM leukemia
SF-539 CNS = system: SF-539 CNS
MOLT-4 leukemia = system: MOLT-4 leukemia
HOP-92 NSCLC = system: HOP-92 NSCLC
SK-OV-3 ovarian = system: SK-OV-3 ovarian
NCI-H23 lung = system: NCI-H23 lung
LOX IMVI melanoma = system: LOX IMVI melanoma
BT-549 breast = system: BT-549 breast
A549 NSCLC = system: A549 NSCLC
MDA-N = system: MDA-N
ACHN renal = system: ACHN renal
MCF7 breast = system: MCF7 breast
SF-268 CNS = system: SF-268 CNS
OVCAR-3 ovarian = system: OVCAR-3 ovarian
HCT-15 colon = system: HCT-15 colon
EKVX NSCLC = system: EKVX NSCLC
COLO 205 colon = system: COLO 205 colon
MALME-3M melanoma = system: MALME-3M melanoma

For `COC1=CC(=O)c2c(c(-c3csc(C)n3)cn2C)C1=O`, the TGI (UO-31 renal) was > 73.4 µM, the TGI (NCI/ADR-RES ovarian) was > 79.1 µM and the TGI (UACC-62 melanoma) was 42.5 µM. The TGI (UACC-257 melanoma) was 32.6 µM, the TGI (KM12 colon) was > 100 µM and the TGI (NCI-H522 lung) was 91.4 µM. The TGI (PC-3 prostate) was > 68.6 µM, the TGI (SF-295 CNS) was > 67.1 µM and the TGI (K-562 leukemia) was > 100 µM. The TGI (NCI-H460 lung) was 19.9 µM, the TGI (HL-60(TB) leukemia) was 23.9 µM and the TGI (786-0 renal) was > 76.7 µM. For the same compound, the TGI (HCT-116 colon) was > 77.5 µM, the TGI (RXF 393 renal) was 43.3 µM and the TGI (HS 578T breast) was > 100 µM. For the same compound, the TGI (RPMI-8226 leukemia) was > 19.8 µM, the TGI (A498 renal) was 72.6 µM and the TGI (SNB-75 CNS) was 19 µM. The TGI (SW-620 colon) was > 100 µM, the TGI (HOP-62 NSCLC) was > 68.4 µM and the TGI (M14 melanoma) was > 100 µM. The TGI (OVCAR-5 ovarian) was > 95 µM, the TGI (T-47D breast) was > 64.3 µM and the TGI (SR leukemia) was > 100 µM. The TGI (TK-10 renal) was > 100 µM, the TGI (NCI-H226 lung) was > 100 µM and the TGI (IGROV1 ovarian) was 72.2 µM. The TGI (U251 CNS) was > 100 µM, the TGI (MDA-MB-231 breast) was > 86.6 µM and the TGI (SK-MEL-2 melanoma) was > 63.8 µM. The TGI (MDA-MB-435) was 26.8 µM, the TGI (OVCAR-8 ovarian) was > 94.8 µM and the TGI (HCC-2998 colon) was > 100 µM. For the same compound, the TGI (SNB-19 CNS) was > 81.2 µM, the TGI (SN12C renal) was > 68.9 µM and the TGI (OVCAR-4 ovarian) was > 100 µM. The TGI (DU-145 prostate) was > 45.9 µM, the TGI (SK-MEL-28 melanoma) was > 100 µM and the TGI (HT29 colon) was 91.6 µM. The TGI (SK-MEL-5 melanoma) was 4.97 µM, the TGI (CAKI-1 renal) was > 73.5 µM and the TGI (CCRF-CEM leukemia) was > 94.4 µM. For the same compound, the TGI (SF-539 CNS) was 54.7 µM, the TGI (MOLT-4 leukemia) was > 100 µM and the TGI (HOP-92 NSCLC) was > 100 µM. For the same compound, the TGI (SK-OV-3 ovarian) was > 100 µM, the TGI (NCI-H23 lung) was 15 µM and the TGI (LOX IMVI melanoma) was > 100 µM. For the same compound, the TGI (BT-549 breast) was > 100 µM, the TGI (A549 NSCLC) was > 41.6 µM and the TGI (MDA-N) was 35.1 µM. The TGI (ACHN renal) was > 71.9 µM, the TGI (MCF7 breast) was > 69.5 µM and the TGI (SF-268 CNS) was > 100 µM. For the same compound, the TGI (OVCAR-3 ovarian) was 36.4 µM, the TGI (HCT-15 colon) was > 52.5 µM and the TGI (EKVX NSCLC) was 77.9 µM. The TGI (COLO 205 colon) was > 71.1 µM.
In the case of `CCOC(=O)CNC(=O)C(CSCC1C(=O)Nc2ccccc21)NC(=O)CCC(N)C(=O)OCC` (centres undefined), the TGI (UO-31 renal) is reported as 2.74 µM, the TGI (NCI/ADR-RES ovarian) is reported as 3.02 µM and the TGI (UACC-62 melanoma) is reported as 2.92 µM. The TGI (UACC-257 melanoma) was 14.3 µM, the TGI (KM12 colon) was 8.33 µM and the TGI (NCI-H522 lung) was 3.59 µM. The TGI (PC-3 prostate) was 4.9 µM, the TGI (SF-295 CNS) was 6.31 µM and the TGI (MALME-3M melanoma) was 4.89 µM. The TGI (K-562 leukemia) was 0.948 µM, the TGI (NCI-H460 lung) was 20.9 µM and the TGI (HL-60(TB) leukemia) was 4.7 µM. It also gave a TGI (786-0 renal) of 4.28 µM, a TGI (HCT-116 colon) of 2.97 µM and a TGI (RXF 393 renal) of 2.72 µM. For the same compound, the TGI (HS 578T breast) was 17.6 µM, the TGI (RPMI-8226 leukemia) was 3.09 µM and the TGI (A498 renal) was 8.19 µM. It also gave a TGI (SW-620 colon) of 2.73 µM, a TGI (HOP-62 NSCLC) of 4.99 µM and a TGI (M14 melanoma) of 4.01 µM. The TGI (OVCAR-5 ovarian) was 3.65 µM, the TGI (T-47D breast) was > 100 µM and the TGI (SR leukemia) was 0.546 µM. The TGI (TK-10 renal) was 5.14 µM, the TGI (NCI-H226 lung) was 5.44 µM and the TGI (IGROV1 ovarian) was 2.83 µM. For the same compound, the TGI (U251 CNS) was 2.73 µM, the TGI (MDA-MB-231 breast) was 3.48 µM and the TGI (SK-MEL-2 melanoma) was 4.51 µM. The TGI (MDA-MB-435) was 3.19 µM, the TGI (OVCAR-8 ovarian) was 11.4 µM and the TGI (SNB-19 CNS) was 20 µM. The TGI (SN12C renal) was 3.64 µM, the TGI (OVCAR-4 ovarian) was 9.11 µM and the TGI (DU-145 prostate) was 34.4 µM. The TGI (SK-MEL-28 melanoma) was 3.59 µM, the TGI (HT29 colon) was 3.02 µM and the TGI (SK-MEL-5 melanoma) was 3.26 µM. It also gave a TGI (CAKI-1 renal) of 2.4 µM, a TGI (CCRF-CEM leukemia) of 0.79 µM and a TGI (SF-539 CNS) of 0.608 µM. For the same compound, the TGI (HOP-92 NSCLC) was 5.03 µM, the TGI (NCI-H23 lung) was 5.62 µM and the TGI (LOX IMVI melanoma) was 1.64 µM. The TGI (BT-549 breast) was 7.14 µM, the TGI (A549 NSCLC) was 6.63 µM and the TGI (MDA-N) was 5.01 µM. It also gave a TGI (ACHN renal) of 3.74 µM, a TGI (MCF7 breast) of 3.46 µM and a TGI (SF-268 CNS) of 6.44 µM. For the same compound, the TGI (OVCAR-3 ovarian) was 5.65 µM, the TGI (HCT-15 colon) was 2.53 µM and the TGI (EKVX NSCLC) was 4.47 µM. The TGI (COLO 205 colon) was 2.54 µM.
With `NC(=O)C1CCCNC1` (centres undefined) the TGI (UO-31 renal) was > 100 µM, the TGI (NCI/ADR-RES ovarian) was > 100 µM and the TGI (UACC-62 melanoma) was > 100 µM. For the same compound, the TGI (KM12 colon) was > 100 µM, the TGI (NCI-H522 lung) was > 100 µM and the TGI (PC-3 prostate) was > 100 µM. The TGI (SF-295 CNS) was > 100 µM, the TGI (MALME-3M melanoma) was > 100 µM and the TGI (NCI-H460 lung) was > 100 µM. The TGI (HL-60(TB) leukemia) was > 100 µM, the TGI (786-0 renal) was > 100 µM and the TGI (HCT-116 colon) was > 100 µM. For the same compound, the TGI (RXF 393 renal) was > 100 µM, the TGI (HS 578T breast) was > 100 µM and the TGI (RPMI-8226 leukemia) was > 100 µM. The TGI (A498 renal) was > 100 µM, the TGI (SNB-75 CNS) was > 100 µM and the TGI (SW-620 colon) was > 100 µM. The TGI (HOP-62 NSCLC) was > 100 µM, the TGI (M14 melanoma) was > 100 µM and the TGI (OVCAR-5 ovarian) was > 100 µM. The TGI (T-47D breast) was > 100 µM, the TGI (SR leukemia) was > 100 µM and the TGI (TK-10 renal) was > 100 µM. The TGI (NCI-H226 lung) was > 100 µM, the TGI (IGROV1 ovarian) was > 100 µM and the TGI (U251 CNS) was > 100 µM. For the same compound, the TGI (MDA-MB-231 breast) was > 100 µM, the TGI (SK-MEL-2 melanoma) was > 100 µM and the TGI (MDA-MB-435) was > 100 µM. For the same compound, the TGI (OVCAR-8 ovarian) was > 100 µM, the TGI (SNB-19 CNS) was > 100 µM and the TGI (SN12C renal) was > 100 µM. The TGI (OVCAR-4 ovarian) was > 100 µM, the TGI (DU-145 prostate) was > 100 µM and the TGI (SK-MEL-28 melanoma) was > 100 µM. For the same compound, the TGI (HT29 colon) was > 100 µM, the TGI (SK-MEL-5 melanoma) was > 100 µM and the TGI (CAKI-1 renal) was > 100 µM. The TGI (CCRF-CEM leukemia) was > 100 µM, the TGI (SF-539 CNS) was > 100 µM and the TGI (MOLT-4 leukemia) was > 100 µM. The TGI (HOP-92 NSCLC) was > 100 µM, the TGI (SK-OV-3 ovarian) was > 100 µM and the TGI (NCI-H23 lung) was > 100 µM. For the same compound, the TGI (LOX IMVI melanoma) was > 100 µM, the TGI (BT-549 breast) was > 100 µM and the TGI (A549 NSCLC) was > 100 µM. For the same compound, the TGI (MDA-N) was > 100 µM, the TGI (ACHN renal) was > 100 µM and the TGI (MCF7 breast) was > 100 µM. For the same compound, the TGI (SF-268 CNS) was > 100 µM, the TGI (OVCAR-3 ovarian) was > 100 µM and the TGI (HCT-15 colon) was > 100 µM. The TGI (EKVX NSCLC) was > 100 µM and the TGI (COLO 205 colon) was > 100 µM.
